One test addresses EGFR (L858R/T790M/C797S) (Homo sapiens, UniProt P00533, C797S/L858R/T790M). Kind of test: HotSpot radiometric kinase assay, inhibition of EGFR L858R/T790M/C797S mutant. Format: biochemical. The following applies: 33P ATP, room temperature, 120 m. The method in brief: (§1)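 Kinase/substrate pairs in 20 mM HEPES pH 7.5, 10 mM MgCl2, 1 mM EGTA, 0.02% Brij35, 0.02 mg/ml BSA, 0.1 mM Na3VO4, 2 mM DTT, 1% DMSO, preincubated ~20 min with compound. Reaction started with ATP/33P-ATP ([…]), run 120 min at room temperature; phosphorylation read by P81 filter binding, IC50 from curve fits.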

Test [1] has as its system BaF3 cells with engineered EGFR L858R/C797S. As to the kind of experiment: 3-Day CellTiter Glo (CTG) cell proliferation assay, BaF3 EGFR L858R/C797S. Format: cell-based. The following applies: Mus musculus, 3-day CTG proliferation, 72 hours. The method, boiled down: (§2)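 Growth inhibition in transgene-bearing BaF3 lines was scored after three days of compound treatment by CellTiter-Glo 2.0 ATP luminescence, yielding IC50 values.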

For test [2], the system named is BaF3 cells with engineered EGFR d746-750/T790M. As to the kind of experiment: 3-Day CellTiter Glo (CTG) cell proliferation assay, BaF3 EGFR d746-750/T790M. Format: cell-based. The following applies: Mus musculus; BaF3 EGFR d746-750/T790M cells, 3-day CTG proliferation, 72 hours. The method, boiled down:
as §2

In another test the target is EGFR (D770_N771insNPG) (Homo sapiens, UniProt P00533, INS770NPG). Kind of test: HotSpot radiometric kinase assay, inhibition of EGFR (D770_N771insNPG) mutant. The class given is biochemical. The conditions noted are these: 33P ATP, room temperature, 120 m. The method in brief:
as §1

The next test has as its target EGFR (D746-750) (Homo sapiens, UniProt P00533, DEL746-750). As to the kind of experiment: HotSpot radiometric kinase assay, inhibition of EGFR 746-750 mutant. The class given is biochemical. The conditions noted are these: 33P ATP, room temperature, 120 m. The method in brief:
as §1

The next test concerns the target EGFR (D746-750/C797S) (Homo sapiens, UniProt P00533, C797S/DEL746-750). Kind of test: HotSpot radiometric kinase assay, inhibition of EGFR 746-750/C797S mutant. The class given is biochemical. The following applies: 33P ATP, room temperature, 120 m. The method in brief: as §1
The test system of test [3] is BaF3 cells with engineered EGFR L858R/T790M/C797S. As to the kind of experiment: 3-Day CellTiter Glo (CTG) cell proliferation assay, BaF3 EGFR L858R/T790M/C797S. Format: cell-based. The following applies: Mus musculus, 3-day CTG proliferation, 72 hours. The method in brief:
as §2

Test [4] concerns the target T1, pEGFR, NCI-H1975 cells (L858R/T790M EGFR) (Homo sapiens, UniProt P00533, L858R/T790M).
T1 construct: pEGFR (Tyr1068) TR-FRET
Kind of test: Cellular EGFR phosphorylation assay (LANCE Ultra TR-FRET) in NCI-H1975 cells. Format: cell-based. The following applies: 4 hours at 37° C., read-out: H1975 pEGFR IC50. The method in brief:
(§3)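 4 h compound treatment at 37 °C, 9-point 3-fold titration. EGF (40 ng/mL, final 10 min) in A431 only. Tyr1068 phosphorylation measured by TR-FRET and IC50 fitted.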

Test [5] deals with T2, pEGFR, A431 cells (wildtype EGFR) (Homo sapiens, UniProt P00533).
T2 construct: pEGFR (Tyr1068) TR-FRET
Kind of test: Cellular EGFR phosphorylation assay (LANCE Ultra TR-FRET) in A431 cells. The following applies: 4 hours at 37° C., 40 ng/mL EGF for the final 10 minutes, read-out: A431 pEGFR IC50. Format: cell-based. The method in brief:
as §3

The target in test [6] is T3, pEGFR, PC-9 cells (d746-750 EGFR) (Homo sapiens, UniProt P00533, DEL746-750).
T3 construct: pEGFR (Tyr1068) TR-FRET
As to the kind of experiment: Cellular EGFR phosphorylation assay (LANCE Ultra TR-FRET) in PC-9 cells. The class given is cell-based. The following applies: 4 hours at 37° C., read-out: PC-9 pEGFR IC50. The method in brief: as §3

Another test relates to HCC827 cells. Kind of test: 5-Day CellTiter Glo (CTG) cell proliferation assay, HCC827. Format: cell-based. The conditions noted are these: Homo sapiens; HCC827 cells (d746-750 EGFR), 5-day CTG proliferation, 120 hours; read-out: HCC827 IC50. The method, boiled down:
(§4)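 Luminescent ATP signal (CellTiter-Glo 2.0) after 120 hours of compound exposure gave IC50 values. PC-9 and HCC827 harbour EGFR d746-750; NCI-H1975 harbours L858R/T790M.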

For a further test, the system named is NCI-H1975 cells. Kind of test: 5-Day CellTiter Glo (CTG) cell proliferation assay, NCI-H1975. The class given is cell-based. The following applies: Homo sapiens; NCI-H1975 cells (L858R/T790M EGFR), 5-day CTG proliferation, 120 hours; read-out: H1975 IC50. The method in brief: as §4
For another test, the system named is PC-9 cells. Kind of test: 5-Day CellTiter Glo (CTG) cell proliferation assay, PC-9. Format: cell-based. The conditions noted are these: Homo sapiens; PC-9 cells (d746-750 EGFR), 5-day CTG proliferation, 120 hours; read-out: PC-9 IC50. The method, boiled down:
as §4

Molecules are shown by their SMILES. pIC50: −log10 of the molar value.

T3 sequence (P00533 with tags, fused parts or gaps DEL746-750): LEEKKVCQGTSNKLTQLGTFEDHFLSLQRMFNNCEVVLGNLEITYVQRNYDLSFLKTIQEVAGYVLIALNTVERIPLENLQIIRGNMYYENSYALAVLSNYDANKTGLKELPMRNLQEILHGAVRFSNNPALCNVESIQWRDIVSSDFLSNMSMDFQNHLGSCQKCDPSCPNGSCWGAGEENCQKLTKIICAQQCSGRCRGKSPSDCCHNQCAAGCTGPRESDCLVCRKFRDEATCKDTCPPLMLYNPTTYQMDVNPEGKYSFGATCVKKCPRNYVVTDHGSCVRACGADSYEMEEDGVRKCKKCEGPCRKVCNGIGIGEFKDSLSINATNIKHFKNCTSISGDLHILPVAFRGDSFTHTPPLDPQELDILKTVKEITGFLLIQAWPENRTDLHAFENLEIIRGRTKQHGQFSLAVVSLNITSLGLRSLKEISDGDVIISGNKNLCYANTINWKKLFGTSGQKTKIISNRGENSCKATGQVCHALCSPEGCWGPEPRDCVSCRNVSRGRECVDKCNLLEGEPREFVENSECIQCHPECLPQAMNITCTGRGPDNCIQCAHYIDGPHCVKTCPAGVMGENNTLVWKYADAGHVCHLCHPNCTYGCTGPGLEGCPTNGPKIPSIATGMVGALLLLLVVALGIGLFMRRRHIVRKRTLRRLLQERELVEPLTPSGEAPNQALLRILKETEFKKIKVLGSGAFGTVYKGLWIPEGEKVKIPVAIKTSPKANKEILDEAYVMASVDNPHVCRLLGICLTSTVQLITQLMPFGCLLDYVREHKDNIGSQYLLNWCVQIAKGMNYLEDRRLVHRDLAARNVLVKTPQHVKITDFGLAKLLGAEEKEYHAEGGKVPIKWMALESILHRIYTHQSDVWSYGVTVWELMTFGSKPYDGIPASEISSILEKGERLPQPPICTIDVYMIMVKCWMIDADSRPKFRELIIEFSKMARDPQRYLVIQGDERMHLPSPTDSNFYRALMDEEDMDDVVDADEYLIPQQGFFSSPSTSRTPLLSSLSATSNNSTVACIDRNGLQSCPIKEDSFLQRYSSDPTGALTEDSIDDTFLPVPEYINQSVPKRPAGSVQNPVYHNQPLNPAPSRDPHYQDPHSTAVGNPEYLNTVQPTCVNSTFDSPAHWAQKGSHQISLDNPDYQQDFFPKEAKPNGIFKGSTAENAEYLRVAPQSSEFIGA
EGFR (D746-750), sequence (P00533 with tags, fused parts or gaps DEL746-750): as above
T2 sequence (P00533 25-1210): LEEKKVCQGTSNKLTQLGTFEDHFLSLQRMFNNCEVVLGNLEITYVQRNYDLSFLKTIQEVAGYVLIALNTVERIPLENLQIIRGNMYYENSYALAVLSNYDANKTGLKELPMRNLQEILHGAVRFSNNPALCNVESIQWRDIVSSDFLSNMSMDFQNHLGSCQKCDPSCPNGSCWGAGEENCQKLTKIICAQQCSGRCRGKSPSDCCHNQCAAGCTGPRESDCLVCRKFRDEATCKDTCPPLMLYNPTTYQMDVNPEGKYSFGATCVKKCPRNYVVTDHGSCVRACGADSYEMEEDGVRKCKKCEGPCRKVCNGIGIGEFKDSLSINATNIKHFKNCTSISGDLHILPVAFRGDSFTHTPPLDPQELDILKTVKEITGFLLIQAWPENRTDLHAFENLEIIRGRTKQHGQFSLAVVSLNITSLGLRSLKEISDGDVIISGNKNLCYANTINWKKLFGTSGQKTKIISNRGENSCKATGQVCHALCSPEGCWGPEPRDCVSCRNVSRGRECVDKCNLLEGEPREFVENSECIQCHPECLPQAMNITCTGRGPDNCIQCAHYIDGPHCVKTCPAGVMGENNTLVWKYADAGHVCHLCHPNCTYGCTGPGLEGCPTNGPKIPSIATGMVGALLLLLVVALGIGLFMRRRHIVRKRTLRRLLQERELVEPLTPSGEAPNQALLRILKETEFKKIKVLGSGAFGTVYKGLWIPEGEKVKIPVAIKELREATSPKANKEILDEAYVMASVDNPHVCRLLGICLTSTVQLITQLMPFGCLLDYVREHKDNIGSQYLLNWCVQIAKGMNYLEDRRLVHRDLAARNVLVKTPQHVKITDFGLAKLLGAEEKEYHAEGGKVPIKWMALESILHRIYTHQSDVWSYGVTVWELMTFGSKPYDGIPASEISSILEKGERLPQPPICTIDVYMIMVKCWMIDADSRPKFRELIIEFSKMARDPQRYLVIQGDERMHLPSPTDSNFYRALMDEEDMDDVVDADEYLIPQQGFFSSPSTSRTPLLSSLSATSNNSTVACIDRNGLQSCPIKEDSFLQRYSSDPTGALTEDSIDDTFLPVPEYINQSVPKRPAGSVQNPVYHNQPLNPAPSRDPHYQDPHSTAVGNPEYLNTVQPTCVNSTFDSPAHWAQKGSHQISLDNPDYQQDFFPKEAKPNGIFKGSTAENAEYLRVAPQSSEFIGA
T1 sequence (P00533 25-1210 T790M/L858R): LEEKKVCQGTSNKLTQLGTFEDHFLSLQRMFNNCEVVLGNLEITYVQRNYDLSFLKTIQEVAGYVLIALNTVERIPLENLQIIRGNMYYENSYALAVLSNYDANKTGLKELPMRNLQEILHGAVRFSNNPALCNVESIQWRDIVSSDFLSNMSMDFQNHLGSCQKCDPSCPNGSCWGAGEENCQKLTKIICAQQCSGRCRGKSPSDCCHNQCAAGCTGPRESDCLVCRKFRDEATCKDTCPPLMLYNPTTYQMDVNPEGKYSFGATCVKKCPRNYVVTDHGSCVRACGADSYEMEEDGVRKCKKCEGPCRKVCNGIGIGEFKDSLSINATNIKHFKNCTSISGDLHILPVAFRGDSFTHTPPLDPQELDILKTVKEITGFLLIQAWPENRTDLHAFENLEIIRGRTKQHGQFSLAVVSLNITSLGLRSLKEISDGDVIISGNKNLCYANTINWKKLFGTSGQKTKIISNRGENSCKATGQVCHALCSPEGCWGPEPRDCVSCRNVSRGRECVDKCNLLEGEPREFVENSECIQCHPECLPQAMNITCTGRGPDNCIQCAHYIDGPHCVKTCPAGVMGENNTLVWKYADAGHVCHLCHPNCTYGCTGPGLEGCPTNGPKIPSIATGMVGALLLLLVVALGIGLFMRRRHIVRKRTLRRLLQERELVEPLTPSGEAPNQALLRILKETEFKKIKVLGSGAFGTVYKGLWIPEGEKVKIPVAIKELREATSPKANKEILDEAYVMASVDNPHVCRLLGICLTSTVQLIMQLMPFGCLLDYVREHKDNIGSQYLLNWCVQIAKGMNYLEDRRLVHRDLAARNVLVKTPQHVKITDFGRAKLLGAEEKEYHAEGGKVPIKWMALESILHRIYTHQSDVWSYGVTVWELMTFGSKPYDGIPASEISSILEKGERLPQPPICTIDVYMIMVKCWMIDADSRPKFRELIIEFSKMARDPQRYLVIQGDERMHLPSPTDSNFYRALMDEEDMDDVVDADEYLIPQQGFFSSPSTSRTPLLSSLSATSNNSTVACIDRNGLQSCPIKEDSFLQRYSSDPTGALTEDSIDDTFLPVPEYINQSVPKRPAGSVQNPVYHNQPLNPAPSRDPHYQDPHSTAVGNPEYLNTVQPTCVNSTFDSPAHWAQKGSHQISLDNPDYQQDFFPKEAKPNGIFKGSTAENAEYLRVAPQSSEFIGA

With `CCN1Cc2c(c(OCC#N)nn2CCO)/C=C/c2n[nH]c3cnc(cc23)-c2c(C)nn(C)c2O[C@H](C)C1` [Ex. 36, {[(10R,17E)-12-ethyl-14-(2-hydroxyethyl)-6,8,10-trimethyl-2,10,11,12,13,14-hexahydro-8H-5,3-(azenometheno)tripyrazolo[3,4-f:3′,4′-j:4″,3″-n][1,4]oxazacyclopentadecin-16-yl]oxy}acetonitrile], the pIC50 is 9.89 on EGFR (L858R/T790M/C797S); 9.33 in [1]; 8.67 in [2]; 9.85 at EGFR (D770_N771insNPG); 10.00 against EGFR (D746-750); 9.54 against EGFR (D746-750/C797S). This compound showed a pIC50 in test [3] of 8.71.
For the compound `Cc1nc2cc3c(n[nH]c13)/C=C/c1c(OC(C)C)nn(CCO)c1CN(C)C[C@H](C)Oc1c-2cnn1C` [Ex. 40, 2-[(10S,17E)-8,10,12,20-tetramethyl-16-[(propan-2-yl)oxy]-2,8,10,11,12,13-hexahydro-14H-5,3-(azenometheno)tripyrazolo[3,4-f:3′,4′-j:4″,3″-n][1,4]oxazacyclopentadecin-14-yl]ethan-1-ol], the pIC50 against EGFR (L858R/T790M/C797S) is 9.35; in test [4], 8.80; in test [1], 9.55; in [5], 7.83; in [2], 8.48; against EGFR (D770_N771insNPG) it was 8.79. Moreover, the pIC50 at EGFR (D746-750) is 9.46; at EGFR (D746-750/C797S), 9.01; in test [6], 7.94; in [3], 9.04.
For the compound `Cc1nn(CCO)c2c1/C=C/c1n[nH]c3cnc(cc13)-c1c(C)nn(C)c1O[C@@H](C)CN(C)C2` [Ex. 41, 2-[(10S,17E)-6,8,10,12,16-pentamethyl-2,8,10,11,12,13-hexahydro-14H-5,3-(azenometheno)tripyrazolo[3,4-f:3′,4′-j:4″,3″-n][1,4]oxazacyclopentadecin-14-yl]ethan-1-ol], the pIC50 is 9.64 against EGFR (L858R/T790M/C797S); 9.80 in test [1]; 7.86 in test [2]; 10.10 on EGFR (D770_N771insNPG); 10.10 on EGFR (D746-750); 9.64 at EGFR (D746-750/C797S). Further, the pIC50 in [3] was 8.43.
Take `Cc1nn(CCO)c2c1/C=C/c1n[nH]c3c(C)nc(cc13)-c1c(C)nn(C)c1O[C@@H](C)CN(C(C)C)C2` [Ex. 109, 2-[(10S,17E)-6,8,10,16,20-pentamethyl-12-(propan-2-yl)-2,8,10,11,12,13-hexahydro-14H-5,3-(azenometheno)tripyrazolo[3,4-f3′,4′-j:4″,3″-n][1,4]oxazacyclopentadecin-14-yl]ethan-1-ol]: the pIC50 in test [4] is 8.75; in [1], 9.62; in test [5] it was 8.45; in test [2] it was 8.93; in the test with HCC827 cells, 9.05; in the test on NCI-H1975 cells it was 8.58. Also, the pIC50 in the test with PC-9 cells is 8.26; in [6], 8.54; in test [3], 8.93.
For the compound `CCOc1nn([C@@H](C)CO)c2c1/C=C/c1n[nH]c3cnc(cc13)-c1c(C)nn(C)c1OC[C@@H](C)N(C1CC1)C2` [Ex. 111, (2S)-2-[(11R,17E)-12-cyclopropyl-16-ethoxy-6,8,11-trimethyl-2,8,10,11,12,13-hexahydro-14H-5,3-(azenometheno)tripyrazolo[3,4-f:3′,4′-j:4″,3″-n][1,4]oxazacyclopentadecin-14-yl]propan-1-ol], the pIC50 in test [4] is 8.68; in test [1], 9.96; in test [5], 8.84; in test [2], 9.11; in the test with HCC827 cells, 9.37; in the test on NCI-H1975 cells, 8.51. The pIC50 with PC-9 cells is 8.82; in test [6] it was 8.97; in [3], 8.95.
As to `CCOc1nn(CCO)c2c1/C=C/c1n[nH]c3cnc(cc13)-c1c(C)nn(C)c1O[C@@H](C)CN(C1CC1)C2` [Ex. 113, 2-[(10S,17E)-12-cyclopropyl-16-ethoxy-6,8,10-trimethyl-2,8,10,11,12,13-hexahydro-14H-5,3-(azenometheno)tripyrazolo[3,4-f:3′,4′-j:4″,3″-n][1,4]oxazacyclopentadecin-14-yl]ethan-1-ol], the pIC50 in [4] is 8.80; in test [1], 9.96; in test [5] it was 7.96; in [2] it was 8.93; in the test with HCC827 cells it was 9.35; with NCI-H1975 cells it was 8.85. The pIC50 is 9.17 with PC-9 cells, 8.70 in test [6] and 9.04 in test [3].
Turning to `CCOc1nn(CCO)c2c1/C=C/c1n[nH]c3cnc(cc13)-c1c(C)nn(C)c1OC[C@@H](C)N(C1CC1)C2` [Ex. 114, 2-[(11R,17E)-12-cyclopropyl-16-ethoxy-6,8,11-trimethyl-2,8,10,11,12,13-hexahydro-14H-5,3-(azenometheno)tripyrazolo[3,4-f:3′,4′-j:4″,3″-n][1,4]oxazacyclopentadecin-14-yl]ethan-1-ol], the pIC50 in test [4] is 8.25; in test [1], 9.38; in [5] it was 7.65; in test [2], 8.43; with HCC827 cells it was 8.78; in the test on NCI-H1975 cells it was 7.57. In addition, the pIC50 in the test with PC-9 cells is 8.31; in [6], 8.45; in [3] it was 8.74.
Consider `CCOc1nn(CCO)c2c1/C=C/c1n[nH]c3c(C)nc(cc13)-c1c(C)nn(C)c1O[C@@H](C)[C@H]1CCCN1C2` [Ex. 177, 2-[(8aR,9S,19E)-1-ethoxy-9,11,13,21-tetramethyl-7,8,8a,9,11,17-hexahydro-6H-14,16-(azenometheno)tripyrazolo[3,4-f:3′,4′-j:4″,3″-n]pyrrolo[2,1-c][1,4]oxazacyclopentadecin-3(4H)-yl]ethan-1-ol], for which the pIC50 was 8.86 in test [4]; 10.15 in test [1]; 8.05 in test [5]; 9.06 in test [2]; 9.41 in the test on HCC827 cells; 8.59 with NCI-H1975 cells. Further, the figures for the pIC50 (in the test on PC-9 cells; in test [6]; in test [3]) were 8.84, 9.00 and 9.01, respectively.
On to `CCOc1nn(CCO)c2c1/C=C/c1n[nH]c3c(C)nc(cc13)-c1c(C)nn(C)c1O[C@H](C)[C@H]1CCCN1C2` [Ex. 178], for which the pIC50 is 8.89 in [4]; 10.22 in [1]; 7.90 in test [5]; 9.17 in test [2]; 9.41 with HCC827 cells; 9.03 in the test with NCI-H1975 cells. Besides, the pIC50 was 8.99 with PC-9 cells, 9.09 in [6] and 9.23 in test [3].
Take `CCOc1nn([C@@H](C)CO)c2c1/C=C/c1n[nH]c3c(C)nc(cc13)-c1c(C)nn(C)c1O[C@@H](C)[C@H]1CCCN1C2` [Ex. 179, (2S)-2-[(8aR,9S,19E)-1-ethoxy-9,11,13,21-tetramethyl-7,8,8a,9,11,17-hexahydro-6H-14,16-(azenometheno)tripyrazolo[3,4-f:3′,4′-j:4″,3″-n]pyrrolo[2,1-c][1,4]oxazacyclopentadecin-3(4H)-yl]propan-1-ol]: the pIC50 in test [4] was 8.86; in [1] it was 10.00; in test [5], 8.06; in test [2], 9.06; in the test with HCC827 cells, 9.64; with NCI-H1975 cells it was 8.85. Further, the pIC50 was 9.11 in the test with PC-9 cells, 9.16 in [6] and 8.83 in [3].
